Data set [1] addresses T1, Replication protein A 70 kDa DNA-binding subunit (Homo sapiens, UniProt P27694).
The next data set deals with U2OS. Description: Cellular uptake in human U2OS cells after 24 hrs by confocal microscopy. The class given is ADME, cell-based.
Data set [2] can be described thus: Binding affinity to recombinant human RPA70C/32D/14 by fluorescence polarization anisotropy assay.
Data set [3] has as its target T1, Replication protein A 70 kDa DNA-binding subunit. Description: Binding affinity to recombinant human RPA70 A/B region (181 to 422 amino acids) expressed in Escherichia coli Rosetta by fluorescence polarization anisotropy assay. (Polarisation of emitted light reports the rotation of a fluorescent probe.)

Positions of bridges follow the written chain, without caps; N, C: chain ends. Non-standard residues stand in square brackets, D forms with d. Residues, ends and D or L forms follow the SMILES beside them. *: point of attachment. X1 = O=C(O)c1cc(NC(=S)*)ccc1-c1c2ccc(=O)cc-2oc2cc(O)ccc12; Phe(3,4-Cl2) = N[C@@H](Cc1ccc(Cl)c(Cl)c1)C(=O)O; R5 = C=CCCC[C@@](C)(N)C(=O)O

T1 sequence (P27694 whole entry): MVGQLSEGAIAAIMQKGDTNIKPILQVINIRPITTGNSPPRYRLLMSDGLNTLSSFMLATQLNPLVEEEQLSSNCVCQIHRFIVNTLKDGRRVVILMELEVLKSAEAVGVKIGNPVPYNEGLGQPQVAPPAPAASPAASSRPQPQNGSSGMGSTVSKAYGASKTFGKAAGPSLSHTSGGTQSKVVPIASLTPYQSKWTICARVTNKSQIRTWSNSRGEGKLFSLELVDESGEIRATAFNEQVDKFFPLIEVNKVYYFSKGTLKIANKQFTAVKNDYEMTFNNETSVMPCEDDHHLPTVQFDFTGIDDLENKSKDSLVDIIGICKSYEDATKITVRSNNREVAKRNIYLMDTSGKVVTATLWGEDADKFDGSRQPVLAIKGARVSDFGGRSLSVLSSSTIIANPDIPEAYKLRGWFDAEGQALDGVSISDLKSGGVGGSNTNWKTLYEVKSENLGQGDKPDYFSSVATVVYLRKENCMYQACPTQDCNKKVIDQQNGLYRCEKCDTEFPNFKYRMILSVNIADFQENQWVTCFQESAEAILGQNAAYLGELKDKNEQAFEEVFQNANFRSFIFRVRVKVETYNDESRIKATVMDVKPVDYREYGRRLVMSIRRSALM

The Kd is the constant that tells how readily two partners part at equilibrium. Ac-DFTADDLEEWDTLAS-NH2 gave a Kd in data set [1] of 138 µM. On the same count and under the same terms, with `CC(C)C[C@H](NC(=O)[C@H](C)NC(=O)[C@H](Cc1ccccc1)NC(=O)[C@H](Cc1c[nH]c2ccccc12)NC(=O)[C@H](CCC(=O)O)NC(=O)[C@H](CCC(=O)O)NC(=O)[C@H](CC(C)C)NC(=O)[C@H](CC(=O)O)NC(=O)[C@H](CC(=O)O)NC(=O)[C@H](C)NC(=O)[C@@H](NC(=O)[C@H](Cc1ccccc1)NC(=O)[C@H](CC(=O)O)NC(=S)Nc1ccc(-c2c3ccc(=O)cc-3oc3cc(O)ccc23)c(C(=O)O)c1)[C@@H](C)O)C(=O)N[C@@H](C)C(N)=O` (X1-DFTADDLEEWFALA-NH2) the figure was 0.58 µM. Still for that read-out and setting: under Ac-DFTADDLEELFTLAS-NH2 stands 22 µM; under Ac-DFTADDLEELDALAS-NH2, 17 µM. Same read-out and setting: with Ac-NFTADDLEEWFALAS-NH2 the figure was 5.8 µM; with Ac-DFTADDLEQWFALAS-NH2, 2.6 µM; with Ac-DFTADDLEALDTLAS-NH2, 167 µM. As to Ac-DFTADDLAELDTLAS-OH, the affinity in data set [1], expressed as Kd, was 22 µM. Still for that read-out and setting: under Ac-DFTADDLEELATLAS-NH2 stands 85 µM; under `CC(C)C[C@H](NC(=O)[C@H](C)NC(=O)[C@H](Cc1ccccc1)NC(=O)[C@H](Cc1c[nH]c2ccccc12)NC(=O)[C@H](CCC(=O)O)NC(=O)[C@H](CCC(=O)O)NC(=O)[C@H](CC(C)C)NC(=O)[C@H](CC(=O)O)NC(=O)[C@H](CC(=O)O)NC(=O)[C@H](C)NC(=O)[C@@H](NC(=O)[C@H](Cc1ccccc1)NC(=O)[C@H](CC(=O)O)NC(=S)Nc1ccc(-c2c3ccc(=O)cc-3oc3cc(O)ccc23)c(C(=O)O)c1)[C@@H](C)O)C(N)=O` (X1-DFTADDLEEWFAL-NH2), 0.33 µM; under Ac-DFTADDLEELDTLAA-NH2, 26 µM. The same measure, in the same setting: with Ac-DFTADDLEEADTLAS-NH2 the figure was 197 µM; with `CC(C)C[C@H](NC(=O)[C@H](CC(=O)O)NC(=O)[C@H](CC(=O)O)NC(=O)[C@H](C)NC(=O)[C@@H](NC(=O)[C@H](Cc1ccccc1)NC(=O)[C@H](CC(=O)O)NC(=S)Nc1ccc(-c2c3ccc(=O)cc-3oc3cc(O)ccc23)c(C(=O)O)c1)[C@@H](C)O)C(=O)N[C@@H](CCC(=O)O)C(=O)N[C@@H](CCC(=O)O)C(=O)N[C@@H](Cc1c[nH]c2ccccc12)C(=O)N[C@@H](Cc1ccccc1)C(=O)N[C@@H](C)C(N)=O` (X1-DFTADDLEEWFA-NH2), 0.91 µM. On the same count and under the same terms, with Ac-AFTADDLEELDTLAS-NH2 the figure was 152 µM; with Ac-DFTAADLEELDTLAS-NH2, 31 µM.

In data set [1], Ac-DFTADALEELDTLAS-NH2 came in with a Kd of 225 µM. Consider `CC(C)C[C@H](NC(=O)[C@H](C)NC(=O)[C@H](Cc1ccccc1)NC(=O)[C@H](Cc1c[nH]c2ccccc12)NC(=O)[C@@]1(C)CCC/C=C\CCC[C@@](C)(NC(=O)[C@H](C)NC(=O)[C@@H](NC(=O)[C@H](Cc2ccccc2)NC(=O)[C@H](CC(=O)O)NC(=S)Nc2ccc(-c3c4ccc(=O)cc-4oc4cc(O)ccc34)c(C(=O)O)c2)[C@@H](C)O)C(=O)N[C@@H](CC(=O)O)C(=O)N[C@@H](CC(C)C)C(=O)N[C@@H](CCC(=O)O)C(=O)N1)C(=O)O` (X1-DFTA[R5]DLE[R5]WFAL-OH; staple (Z) 5-9), for which the Drug uptake result in the data set on U2OS is “Not Active”. Besides, the Kd in data set [1] came to 0.57 µM. Ac-DFTADDLEEWFALAS-NH2 gave a Kd in data set [1] of 1.2 µM. On the same count and under the same terms, with Ac-DFTADDLAELDALAS-NH2 the figure was 20 µM; with Ac-DFTADDLEEWFTLAS-NH2, 2.7 µM. Take `CC(C)C[C@H](NC(=O)[C@H](C)NC(=O)[C@H](Cc1ccccc1)NC(=O)[C@H](Cc1c[nH]c2ccccc12)NC(=O)[C@@]1(C)CCC/C=C\CCC[C@@](C)(NC(=O)[C@H](C)NC(=O)[C@@H](NC(=O)[C@H](Cc2ccccc2)NC(=O)[C@H](CC(N)=O)NC(=S)Nc2ccc(-c3c4ccc(=O)cc-4oc4cc(O)ccc34)c(C(=O)O)c2)[C@@H](C)O)C(=O)N[C@@H](CC(N)=O)C(=O)N[C@@H](CC(C)C)C(=O)N[C@@H](CCC(=O)O)C(=O)N1)C(=O)O` (X1-NFTA[R5]NLE[R5]WFAL-OH; staple (Z) 5-9): in the data set with U2OS, the Drug uptake result was “Active”. For the same compound, the Kd in data set [2] stood at 12 µM; in data set [1], 7.4 µM; in data set [3], 12 µM. Ac-DFTADDLEAWFALAS-NH2 yielded a Kd in data set [1] of 2.4 µM.

Take `CC(C)C[C@H](NC(=O)[C@H](C)NC(=O)[C@H](Cc1ccccc1)NC(=O)[C@H](Cc1c[nH]c2ccccc12)NC(=O)[C@@]1(C)CCC/C=C\CCC[C@@](C)(NC(=O)[C@H](C)NC(=O)[C@@H](NC(=O)[C@H](Cc2ccccc2)NC(=O)[C@H](CC(=O)O)NC(=S)Nc2ccc(-c3c4ccc(=O)cc-4oc4cc(O)ccc34)c(C(=O)O)c2)[C@@H](C)O)C(=O)N[C@@H](CC(N)=O)C(=O)N[C@@H](CC(C)C)C(=O)N[C@@H](CCC(=O)O)C(=O)N1)C(=O)O` (X1-DFTA[R5]NLE[R5]WFAL-OH; staple (Z) 5-9): in the data set on U2OS, the Drug uptake entry is reported as “Active”. Further, the Kd in data set [1] is 3.7 µM. In data set [1], Ac-DFAADDLEELDTLAS-NH2 yielded a Kd of 152 µM.

Ac-DFTADDLEELDTAAS-NH2 registered a Kd in data set [1] of 63 µM. The same measure, in the same setting: under `CC(C)C[C@H](NC(=O)[C@H](C)NC(=O)[C@H](Cc1ccccc1)NC(=O)[C@H](Cc1c[nH]c2ccccc12)NC(=O)[C@@]1(C)CCC/C=C\CCC[C@@](C)(NC(=O)[C@H](C)NC(=O)[C@@H](NC(=O)[C@H](Cc2ccccc2)NC(=O)[C@H](CC(N)=O)NC(=S)Nc2ccc(-c3c4ccc(=O)cc-4oc4cc(O)ccc34)c(C(=O)O)c2)[C@@H](C)O)C(=O)N[C@@H](CC(=O)O)C(=O)N[C@@H](CC(C)C)C(=O)N[C@@H](CCC(=O)O)C(=O)N1)C(=O)O` (X1-NFTA[R5]DLE[R5]WFAL-OH; staple (Z) 5-9) stands 1.5 µM; under Ac-DFTADDLAEWFALAS-NH2, 28 µM; under `CC(C)C[C@H](NC(=O)[C@H](C)NC(=O)[C@H](Cc1ccc(Cl)c(Cl)c1)NC(=O)[C@H](Cc1c[nH]c2ccccc12)NC(=O)[C@@]1(C)CCC/C=C\CCC[C@@](C)(NC(=O)[C@H](C)NC(=O)[C@@H](NC(=O)[C@H](Cc2ccccc2)NC(=O)[C@H](CC(N)=O)NC(=S)Nc2ccc(-c3c4ccc(=O)cc-4oc4cc(O)ccc34)c(C(=O)O)c2)[C@@H](C)O)C(=O)N[C@@H](CC(=O)O)C(=O)N[C@@H](CC(C)C)C(=O)N[C@@H](CCC(=O)O)C(=O)N1)C(=O)O` (X1-NFTA[R5]DLE[R5]W[Phe(3,4-Cl2)]AL-OH; staple (Z) 5-9), 0.048 µM. In data set [1], Ac-DFTADNLEEWFALAS-NH2 showed a Kd of 6.9 µM. Same read-out and setting: with Ac-DFTADDLAEWFTLAS-NH2 the figure was 43 µM; with `CC(C)C[C@H](NC(=O)[C@H](C)NC(=O)[C@H](Cc1ccc(Cl)c(Cl)c1)NC(=O)[C@H](Cc1c[nH]c2ccccc12)NC(=O)[C@H](CCC(=O)O)NC(=O)[C@H](CCC(=O)O)NC(=O)[C@H](CC(C)C)NC(=O)[C@H](CC(=O)O)NC(=O)[C@H](CC(=O)O)NC(=O)[C@H](C)NC(=O)[C@@H](NC(=O)[C@H](Cc1ccccc1)NC(=O)[C@H](CC(=O)O)NC(=S)Nc1ccc(-c2c3ccc(=O)cc-3oc3cc(O)ccc23)c(C(=O)O)c1)[C@@H](C)O)C(N)=O` (X1-DFTADDLEEW[Phe(3,4-Cl2)]AL-NH2), 0.022 µM. The same measure, in the same setting: under `CC(C)C[C@H](NC(=O)[C@H](CC(=O)O)NC(=O)[C@H](CC(=O)O)NC(=O)[C@H](C)NC(=O)[C@@H](NC(=O)[C@H](Cc1ccccc1)NC(=O)[C@H](CC(=O)O)NC(=S)Nc1ccc(-c2c3ccc(=O)cc-3oc3cc(O)ccc23)c(C(=O)O)c1)[C@@H](C)O)C(=O)N[C@@H](CCC(=O)O)C(=O)N[C@@H](CCC(=O)O)C(=O)N[C@@H](CC(C)C)C(=O)N[C@@H](CC(=O)O)C(=O)N[C@H](C(=O)N[C@@H](CC(C)C)C(=O)N[C@@H](C)C(=O)N[C@@H](CO)C(N)=O)[C@@H](C)O` (X1-DFTADDLEELDTLAS-NH2) stands 6.4 µM; under Ac-DFTANDLEEWFALAS-NH2, 19 µM.

Regarding Ac-DFTADDAEELDTLAS-NH2, in data set [1], the Kd turned out to be 172 µM. Same read-out and setting: under `CC(C)C[C@H](NC(=O)[C@H](C)NC(=O)[C@H](Cc1ccccc1)NC(=O)[C@H](Cc1c[nH]c2ccccc12)NC(=O)[C@H](C)NC(=O)[C@H](CCC(=O)O)NC(=O)[C@H](CC(C)C)NC(=O)[C@H](CC(N)=O)NC(=O)[C@H](C)NC(=O)[C@H](C)NC(=O)[C@@H](NC(=O)[C@H](Cc1ccccc1)NC(=O)[C@H](CC(N)=O)NC(=S)Nc1ccc(-c2c3ccc(=O)cc-3oc3cc(O)ccc23)c(C(=O)O)c1)[C@@H](C)O)C(=O)N[C@@H](C)C(=O)N[C@@H](CO)C(N)=O` (X1-NFTAANLEAWFALAS-NH2) stands 21 µM; under Ac-DFTAADLEEWFALAS-NH2, 2.3 µM. Compound Ac-DFTADALEEWFALAS-NH2 gave a Kd in data set [1] of 28 µM.

For the origin of these results see ChEMBL document CHEMBL3232779, “Discovery of a potent stapled helix peptide that binds to the 70N domain of replication protein A” (J Med Chem, 2014).
